Measurements from patent publication US10646489B2, “Compositions and methods for increasing energy metabolism” (NuSirt Sciences, Inc., priority 2012, dated 2020).

What was measured:
[1] = tested on: 3T3-L1 adipocytes; test: Fatty acid oxidation in 3T3-L1 adipocytes / adipocytes; format: cell-based; conditions: p<0.05
From the text: (§1) Data expressed as % change from control value.*p<0.05. The output of the pathways can be measured using one or more methods, disclosed herein and/or known in the art. […] Mitochondrial biogenesis can be measured using a mitochondrial probe by using fluorescence. AMPK activity can be determined by measuring AMPK phosphorylation via an ELISA assay or by Western blot. Sirt1 activity can be determined by measuring deacetylation of a substrate, which can be detected using a fluorophore. […] Treatment with 0.5 mM leucine corresponds to a circulating level of the same molarity achieved by administering about 1,125 mg of dietary leucine to a human subject. Treatment with 0.25 mM leucine corresponds to a circulating level of the same molarity achieved by administering about 300 mg of dietary leucine to a human subject.

[2] = Dose-response of the PDE inhibitor alone (concentration without effect); format: cell-based
Description: (§2) Vinopocetine, which is a PDE 1 inhibitor, was tested in combination with leucine, HMB, and resveratrol for its effects on energy metabolism.
(§3) Two PDE 3 inhibitors were studied, amrinone and cilostamide, in combination with leucine and HMB for their effects on energy metabolism.
Two PDE 4 inhibitors were studied, rolipram and YM796, in combination with leucine and HMB for their effects on energy metabolism.
(§4) Icariin is a naturally occurring flavonol with significant PDE 5 inhibitory activity.

[3] = tested on: 3T3-L1 adipocytes; test: Glucose utilization (extracellular acidification response to glucose injection) in 3T3-L1 adipocytes / adipocytes; format: cell-based
Description: (§5) Glucose utilization was measured as extracellular acidification response to glucose injection. *p=0.05. […] Treatment with 0.5 mM leucine corresponds to a circulating level of the same molarity achieved by administering about 1,125 mg of dietary leucine to a human subject. Treatment with 0.25 mM leucine corresponds to a circulating level of the same molarity achieved by administering about 300 mg of dietary leucine to a human subject.

[4] = Synergy on energy metabolism (fat oxidation, glucose utilization), cell type not stated; format: cell-based
Description: as §2, §3, §4

[5] = tested on: C2C12 myotubes; test: Fatty acid oxidation (O2 consumption response to palmitate injection) in C2C12 myotubes / muscle cells; format: cell-based; conditions: for increase in myotube fat oxidation, with HMB: PDE 5 inhibitor 1 nM with HMB (5 μM); for increase in myotube fat oxidation, with leucine: PDE 5 inhibitor 1 nM with leucine (0.5 mM); for increase in myotube fat oxidation, with resveratrol: PDE 5 inhibitor 1 nM with resveratrol (200 nM)
Description: as §1, with “Fatty acid oxidation was measured as O2 consumption response to palmitate injection and is expressed as % change from pre-injection baseline. […] Data” for “Data”, “value. *p=0.013; **p=0.015.” for “value.*p<0.05.”

[6] = tested on: C2C12 myotubes; test: Nitric oxide production in C2C12 myotubes; format: cell-based; conditions: HMB or resveratrol, each, p<0.0001
Description: Treatment with 0.5 mM leucine corresponds to a circulating level of the same molarity achieved by administering about 1,125 mg of dietary leucine to a human subject. Treatment with 0.25 mM leucine corresponds to a circulating level of the same molarity achieved by administering about 300 mg of dietary leucine to a human subject.

[7] = tested on: C2C12 myotubes; test: Mitochondrial biogenesis measured as mitochondrial mass in C2C12 myotubes; format: cell-based
Description: as §1, with “The” for “Data expressed as % change from control value.*p<0.05. The”

[8] = 25 mg/kg diet; ~4 mg/kg body weight; previous published studies; cited from earlier work
[9] = Substitution of leucine by other branched chain amino acids in the synergy with a PDE5 inhibitor
From the text: Branched chain amino acids that can be combined with a PDE-5 inhibitor have aliphatic side chains with a branch carbon atom that is bound to two or more other atoms. The other atoms may be carbon atoms. Examples of branched chain amino acids include leucine, isoleucine, and valine. Branched chain amino acids may also include other compounds, such as 4-hydroxyisoleucine. In some embodiments, the compositions are substantially free of one or more, or all of non-branched chain amino acids. In some embodiments, the compositions are substantially free of one or more, or all of non-branched chain amino acids in free amino acid form. For example, the compositions can be substantially free of […], and/or tyrosine. The compositions can be substantially free of […], and/or tyrosine in free amino acid form. In some embodiments, the branched chain amino acid is leucine. In some embodiments, the compositions may be substantially free of isoleucine and/or valine, which may be in free form. The synergistic effects between leucine and a PDE5 inhibitor, as described herein, are not observed when leucine is substituted with isoleucine and valine. Not wishing to be bound by any particular theory, isoleucine, valine, and leucine compete with each other for transport and/or absorption, and inclusion of isoleucine and valine in a composition would reduce the efficacy of any leucine in the composition. […]

[10] = tested on: AMPK; test: AMPK activation in adipocytes; format: cell-based; conditions: rolipram 0.1 nM combinations
From the text: (§6) The output of the pathways can be measured using one or more methods, disclosed herein and/or known in the art. For example, fatty acid oxidation can be determined by measuring oxygen consumption, or 3H-labeled palmitate oxidation. Mitochondrial biogenesis can be measured using a mitochondrial probe by using fluorescence. AMPK activity can be determined by measuring AMPK phosphorylation via an ELISA assay or by Western blot. Sirt1 activity can be determined by measuring deacetylation of a substrate, which can be detected using a fluorophore.
(§7) Two PDE 4 inhibitors were studied, rolipram and YM796, in combination with leucine and HMB for their effects on energy metabolism. Dose-response indicate concentrations of 0.1 nM or below of rolipram and YM796 exert no effect; accordingly, this was the concentration used in these experiments. […] However, no synergy was found for glucose utilization or AMPK activation.

[11] = tested on: AMPK; test: AMPK activity / phosphorylation in muscle cells; format: cell-based
From the text: as §6, §7

[12] = tested on: C2C12 myotubes; test: Glucose utilization (extracellular acidification response to glucose injection) in C2C12 myotubes / muscle cells; format: cell-based
Description: as §5, with “*p=0.04.” for “*p=0.05.”

[13] = tested on: diet-induced obese mouse; test: Post-prandial glucose, insulin and HOMAIR in the diet-induced obese mouse; format: in vivo; conditions: 14-day treatment
Description: The interactive effects of icariin, a flavanol with specific PDE5 inhibitory properties, on glycemia and insulin sensitivity were assessed in the diet-induced obese mouse, which can be used as a murine model of type 2 diabetes. Male C57/BL6 mice were placed on standard low-fat chow (control; 10% energy from fat) or high fat (60% energy from fat, Research Diets # D12492, Research Diets, Inc, New Brunswick, N.J.) at six weeks of age to induce insulin resistance. […], with 10 animals per group: Low fat diet (LFD) control; High fat diet (HFD) control; HFD+leucine (24 g/kg diet, a two-fold increase over control levels)1 HFD+leucine (24 g/kg diet)+icariin (25 mg/kg diet). […] Mice were fasted overnight (˜16 hours) prior to measurement of fasting blood glucose, insulin and glucose tolerance. Glucose tolerance was determined following measurement of fasting glucose via intraperitoneal administration of glucose (1.2 g/kg body weight) followed by blood glucose measurement at 15, 30, 60, 90 and 120 minutes. Post-prandial glucose was measured within one hour of cessation of eating. Insulin tolerance was measured via an insulin tolerance test (ITT). Food was removed 4-6 hours prior to ITT, and baseline blood glucose measured. The mice were then injected intraperitoneally with insulin (1.2 U/kg body weight) and blood glucose was measured 15, 30, 60, 90 and 120 minutes following insulin injection. The homeostasis model assessment of insulin resistance (HOMAIR) was used as a screening index of changes in insulin sensitivity. HOMAIR is calculated via standard formula from fasting plasma insulin and glucose as follows: HOMAIR=[Insulin (uU/mL)×glucose (mM)]/22.5. The plasma glucose and insulin concentrations were measured using the Glucose Assay Kit from Biovision (Milpitas, Calif.) and the Insulin kit from Millipore (Billerica, Mass.), respectively. CRP levels in plasma were determined by ELISA (CRP: Life Diagnostics, West Chester, Pa.).

[14] = vinpocetine 0.1 nM with either leucine (0.5 mM) or HMB (5 μM)

## CC(C)(O)CC(=O)O [HMB, beta-hydroxymethylbutyrate]
[1]; 3T3-L1 adipocytes, leucine 0.5 mM or HMB 5 μM alone
  fatty acid oxidation, agent alone: 29%

## CCOC(=O)C1=C[C@]2(CC)CCCN3CCc4c(n1c1ccccc41)[C@@H]32 [Vinpocetine]
[2]
  concentration that exerts no effect (dose-response): ≤ 0.1 nM
[3]; adipocytes, vinpocetine 0.1 nM with low-dose resveratrol (200 nM), p=0.03
  increase in glucose utilization: 70%
[4]; [14]
  synergy with respect to fat oxidation: no synergy
  synergy with respect to glucose utilization: no synergy

## Nc1cc(-c2ccncc2)c[nH]c1=O [amrinone]
[4]; amrinone 10 nM
  synergy with either leucine or HMB (energy metabolism): no significant synergy

## CN(C(=O)CCCOc1ccc2[nH]c(=O)ccc2c1)C1CCCCC1 [cilostamide]
[1]; adipocytes, cilostamide 10 nM combined with either leucine (0.5 mM) or HMB (5 μM)
  increase in fat oxidation: 58%
[5]; muscle cells, cilostamide 10 nM combined with either leucine (0.5 mM) or HMB (5 μM), p<0.05
  increase in fat oxidation: 92%

## COc1ccc(-c2oc3c(CC=C(C)C)c(O[C@@H]4O[C@H](CO)[C@@H](O)[C@H](O)[C@H]4O)cc(O)c3c(=O)c2O[C@@H]2O[C@@H](C)[C@H](O)[C@@H](O)[C@H]2O)cc1 [icariin]
[6]; icariin with leucine
  effect on nitric oxide production: modest, significant effects
[2]
  concentration that exerts no effect (dose-response): below 1 nM
[4]; icariin 1 nM
  synergy with respect to glucose utilization: did not exhibit significant synergy
[7]; icariin 1 nM, FIG. 13, p<0.001
  synergy with both leucine and HMB to up regulate mitochondrial biogenesis: significant synergy
[8]
  effect of the selected level: no effect
[5]; C2C12 myotubes
  increase in myotube fat oxidation, with HMB: 75%
  increase in myotube fat oxidation, with leucine: 77%
  increase in myotube fat oxidation, with resveratrol: 157%

## CC[C@H](C)[C@H](N)C(=O)O [isoleucine]
[9]
  synergistic effects with a PDE5 inhibitor when substituted for leucine: not observed

## Oc1ccc(/C=C/c2cc(O)cc(O)c2)cc1 [resveratrol, 3,5,4′-Trihydroxy-trans-stilbene]
[7]; FIG. 12
  effect of resveratrol on the sildenafil interaction (mitochondrial biomass): no significant effect
[7]; FIG. 13
  interaction of resveratrol with icariin (mitochondrial biogenesis): did not exhibit a significant interaction

## COc1ccc(C2CNC(=O)C2)cc1OC1CCCC1 (stereo not drawn) [rolipram]
[10]
  synergy for AMPK activation: no synergy
[3]; adipocytes, rolipram 0.1 nM combinations
  synergy for glucose utilization: no synergy
[11]; muscle cells, rolipram 0.1 nM
  synergistic effect with leucine, HMB or resveratrol with respect to AMPK activity: no synergistic effect
[11]; rolipram alone, not augmented by leucine or HMB
  AMPK phosphorylation: activated
[12]; muscle cells, rolipram 0.1 nM
  synergistic effect with leucine, HMB or resveratrol with respect to glucose utilization: no synergistic effect
[5]; muscle cells, rolipram 0.1 nM
  synergistic effect with leucine, HMB or resveratrol with respect to fat oxidation: no synergistic effect

## CCCc1nn(C)c2c(=O)[nH]c(-c3cc(S(=O)(=O)N4CCN(C)CC4)ccc3OCC)nc12 [sildenafil]
[6]; sildenafil (1 nM) with leucine
  increase in nitric oxide production: 15-30%
[2]
  concentration that exerts no effect (dose-response): below 1 nM
[3]; 3T3-L1 adipocytes
  synergy of HMB or resveratrol with sildenafil on glucose utilization: neither HMB nor resveratrol exerted any significant synergy
[12]; C2C12 myotubes, sildenafil 1 nM with resveratrol 200 nM, p=0.04
  augmentation of myotube glucose utilization, with resveratrol: 53%
[5]; C2C12 myotubes
  increase in myotube fat oxidation, with HMB: 203%
  increase in myotube fat oxidation, with leucine: 232%
  increase in myotube fat oxidation, with resveratrol: no interaction
[5]; C2C12 myotubes, sildenafil 1 nM (change from baseline) or leucine 0.5 mM alone
  fatty acid oxidation, agent alone: about 50%

## CC(C)[C@H](N)C(=O)O [valine]
[9]
  synergistic effects with a PDE5 inhibitor when substituted for leucine: not observed

## insulin
[13]
  decrease in HOMAIR vs. untreated HFD mice: ~40%
  decrease in circulating (post-prandial) insulin vs. untreated HFD mice: ~30%
